Measured values: the kinase profiling compilation of Christmann-Franck et al. (2016)
Several values for one entry are separate records, joined by “and”; a condition that tells them apart may be missing. Equal entries are not always repeated.

Experiments:
Experiment in all cases: KINOMEscan competition binding
Conditions in all cases: compound 10.0 µM
[1] = molecular target: CLK1 (human) (UniProt P49759)
[2] = molecular target: PLK1 (human) (UniProt P53350)
[3] = molecular target: ERBB4 (human) (UniProt Q15303)
Sequence of ERBB4 (human) (Q15303 whole entry, looked up): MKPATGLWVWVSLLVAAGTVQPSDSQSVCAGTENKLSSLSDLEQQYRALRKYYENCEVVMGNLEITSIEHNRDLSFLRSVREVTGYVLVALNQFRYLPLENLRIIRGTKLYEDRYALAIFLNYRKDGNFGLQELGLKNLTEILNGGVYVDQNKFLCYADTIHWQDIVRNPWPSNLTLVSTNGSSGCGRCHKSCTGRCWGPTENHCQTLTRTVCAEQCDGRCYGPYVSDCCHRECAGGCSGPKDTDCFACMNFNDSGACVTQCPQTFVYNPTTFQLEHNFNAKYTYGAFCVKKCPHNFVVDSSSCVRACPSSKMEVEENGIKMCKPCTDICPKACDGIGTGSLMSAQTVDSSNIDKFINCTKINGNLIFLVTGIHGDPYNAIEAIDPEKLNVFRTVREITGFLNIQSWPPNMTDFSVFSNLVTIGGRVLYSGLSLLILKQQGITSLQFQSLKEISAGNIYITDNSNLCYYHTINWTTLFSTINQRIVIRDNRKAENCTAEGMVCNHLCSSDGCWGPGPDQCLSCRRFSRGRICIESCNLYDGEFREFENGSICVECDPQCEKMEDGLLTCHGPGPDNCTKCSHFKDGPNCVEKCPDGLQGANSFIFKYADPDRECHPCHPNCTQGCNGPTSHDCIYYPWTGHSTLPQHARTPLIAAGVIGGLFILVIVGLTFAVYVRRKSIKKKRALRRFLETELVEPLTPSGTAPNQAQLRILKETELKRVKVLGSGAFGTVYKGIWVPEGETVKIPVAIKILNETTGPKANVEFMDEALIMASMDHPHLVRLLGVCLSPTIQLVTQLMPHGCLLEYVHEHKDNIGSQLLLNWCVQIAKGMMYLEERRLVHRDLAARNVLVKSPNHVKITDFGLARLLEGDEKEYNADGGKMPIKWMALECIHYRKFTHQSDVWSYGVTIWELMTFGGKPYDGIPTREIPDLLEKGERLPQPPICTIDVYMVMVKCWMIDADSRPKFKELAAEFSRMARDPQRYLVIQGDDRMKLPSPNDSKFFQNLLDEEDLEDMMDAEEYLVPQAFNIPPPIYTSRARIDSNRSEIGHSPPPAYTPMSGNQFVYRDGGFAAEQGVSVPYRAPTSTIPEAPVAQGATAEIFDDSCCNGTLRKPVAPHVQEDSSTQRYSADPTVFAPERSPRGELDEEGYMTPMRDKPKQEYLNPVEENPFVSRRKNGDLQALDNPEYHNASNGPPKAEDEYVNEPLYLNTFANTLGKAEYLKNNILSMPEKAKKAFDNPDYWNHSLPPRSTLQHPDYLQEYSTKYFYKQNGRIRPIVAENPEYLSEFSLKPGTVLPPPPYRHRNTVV

[4] = molecular target: GRK1 (human) (UniProt Q15835)
[5] = molecular target: MAPK6 (human) (UniProt Q16659)
[6] = molecular target: CAMKK1 (human) (UniProt Q8N5S9)
[7] = molecular target: CHEK1 (human) (UniProt O14757)
[8] = molecular target: IKBKB (human) (UniProt O14920)
[9] = molecular target: NEK6 (human) (UniProt Q9HC98)
[10] = molecular target: PRKAA2 (human) (UniProt P54646)
[11] = molecular target: MAP4K1 (human) (UniProt Q92918)
Sequence of MAP4K1 (human) (Q92918 whole entry, looked up): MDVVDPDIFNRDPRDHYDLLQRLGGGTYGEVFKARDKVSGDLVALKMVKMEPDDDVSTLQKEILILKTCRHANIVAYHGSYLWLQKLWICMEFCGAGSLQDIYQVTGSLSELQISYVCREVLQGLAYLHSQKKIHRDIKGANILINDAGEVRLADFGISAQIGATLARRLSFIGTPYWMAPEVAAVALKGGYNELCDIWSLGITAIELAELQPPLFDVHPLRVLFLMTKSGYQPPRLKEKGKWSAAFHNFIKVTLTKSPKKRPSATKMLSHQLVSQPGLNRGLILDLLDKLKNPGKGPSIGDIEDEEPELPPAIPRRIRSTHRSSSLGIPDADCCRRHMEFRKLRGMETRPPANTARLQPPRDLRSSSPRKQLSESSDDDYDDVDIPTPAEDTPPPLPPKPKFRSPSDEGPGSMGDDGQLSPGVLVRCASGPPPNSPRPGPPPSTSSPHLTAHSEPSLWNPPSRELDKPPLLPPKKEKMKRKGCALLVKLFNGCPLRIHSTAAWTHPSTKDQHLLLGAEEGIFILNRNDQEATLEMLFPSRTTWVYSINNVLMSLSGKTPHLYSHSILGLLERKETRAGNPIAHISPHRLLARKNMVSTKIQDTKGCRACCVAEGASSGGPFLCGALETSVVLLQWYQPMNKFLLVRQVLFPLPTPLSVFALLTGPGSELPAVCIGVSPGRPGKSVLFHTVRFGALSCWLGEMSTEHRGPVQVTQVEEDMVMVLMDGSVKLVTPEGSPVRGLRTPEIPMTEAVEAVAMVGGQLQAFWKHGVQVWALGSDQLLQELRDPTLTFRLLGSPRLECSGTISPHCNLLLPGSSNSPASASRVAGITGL

[12] = molecular target: DCLK1 (human) (UniProt O15075)
Sequence of DCLK1 (human) (O15075 whole entry, looked up): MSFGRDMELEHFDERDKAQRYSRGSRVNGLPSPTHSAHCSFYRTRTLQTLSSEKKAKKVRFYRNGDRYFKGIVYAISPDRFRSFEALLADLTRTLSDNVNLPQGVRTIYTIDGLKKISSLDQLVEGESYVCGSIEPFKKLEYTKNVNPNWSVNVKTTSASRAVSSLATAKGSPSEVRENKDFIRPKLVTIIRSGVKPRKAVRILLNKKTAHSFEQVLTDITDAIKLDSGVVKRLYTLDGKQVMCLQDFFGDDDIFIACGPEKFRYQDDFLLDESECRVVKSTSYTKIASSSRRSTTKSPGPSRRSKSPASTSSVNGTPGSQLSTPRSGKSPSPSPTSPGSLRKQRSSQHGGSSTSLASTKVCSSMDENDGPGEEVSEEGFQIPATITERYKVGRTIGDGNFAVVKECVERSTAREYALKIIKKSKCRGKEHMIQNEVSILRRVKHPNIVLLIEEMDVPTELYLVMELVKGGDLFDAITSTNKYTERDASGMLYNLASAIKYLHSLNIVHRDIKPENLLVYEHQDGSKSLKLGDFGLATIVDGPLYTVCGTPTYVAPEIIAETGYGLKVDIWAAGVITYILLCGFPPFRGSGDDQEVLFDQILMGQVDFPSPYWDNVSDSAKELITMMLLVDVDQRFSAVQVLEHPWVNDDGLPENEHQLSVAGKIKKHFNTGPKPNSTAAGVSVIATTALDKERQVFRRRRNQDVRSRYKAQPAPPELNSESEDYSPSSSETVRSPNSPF

[13] = molecular target: CaMK1 (human) (UniProt Q14012)
[14] = molecular target: CAMK2A (human) (UniProt Q9UQM7)
[15] = molecular target: PIM3 (human) (UniProt Q86V86)
[16] = molecular target: CAMKK2 (human) (UniProt Q96RR4)
[17] = molecular target: CDC42BPG (human) (UniProt Q6DT37)
Sequence of CDC42BPG (human) (Q6DT37 whole entry, looked up): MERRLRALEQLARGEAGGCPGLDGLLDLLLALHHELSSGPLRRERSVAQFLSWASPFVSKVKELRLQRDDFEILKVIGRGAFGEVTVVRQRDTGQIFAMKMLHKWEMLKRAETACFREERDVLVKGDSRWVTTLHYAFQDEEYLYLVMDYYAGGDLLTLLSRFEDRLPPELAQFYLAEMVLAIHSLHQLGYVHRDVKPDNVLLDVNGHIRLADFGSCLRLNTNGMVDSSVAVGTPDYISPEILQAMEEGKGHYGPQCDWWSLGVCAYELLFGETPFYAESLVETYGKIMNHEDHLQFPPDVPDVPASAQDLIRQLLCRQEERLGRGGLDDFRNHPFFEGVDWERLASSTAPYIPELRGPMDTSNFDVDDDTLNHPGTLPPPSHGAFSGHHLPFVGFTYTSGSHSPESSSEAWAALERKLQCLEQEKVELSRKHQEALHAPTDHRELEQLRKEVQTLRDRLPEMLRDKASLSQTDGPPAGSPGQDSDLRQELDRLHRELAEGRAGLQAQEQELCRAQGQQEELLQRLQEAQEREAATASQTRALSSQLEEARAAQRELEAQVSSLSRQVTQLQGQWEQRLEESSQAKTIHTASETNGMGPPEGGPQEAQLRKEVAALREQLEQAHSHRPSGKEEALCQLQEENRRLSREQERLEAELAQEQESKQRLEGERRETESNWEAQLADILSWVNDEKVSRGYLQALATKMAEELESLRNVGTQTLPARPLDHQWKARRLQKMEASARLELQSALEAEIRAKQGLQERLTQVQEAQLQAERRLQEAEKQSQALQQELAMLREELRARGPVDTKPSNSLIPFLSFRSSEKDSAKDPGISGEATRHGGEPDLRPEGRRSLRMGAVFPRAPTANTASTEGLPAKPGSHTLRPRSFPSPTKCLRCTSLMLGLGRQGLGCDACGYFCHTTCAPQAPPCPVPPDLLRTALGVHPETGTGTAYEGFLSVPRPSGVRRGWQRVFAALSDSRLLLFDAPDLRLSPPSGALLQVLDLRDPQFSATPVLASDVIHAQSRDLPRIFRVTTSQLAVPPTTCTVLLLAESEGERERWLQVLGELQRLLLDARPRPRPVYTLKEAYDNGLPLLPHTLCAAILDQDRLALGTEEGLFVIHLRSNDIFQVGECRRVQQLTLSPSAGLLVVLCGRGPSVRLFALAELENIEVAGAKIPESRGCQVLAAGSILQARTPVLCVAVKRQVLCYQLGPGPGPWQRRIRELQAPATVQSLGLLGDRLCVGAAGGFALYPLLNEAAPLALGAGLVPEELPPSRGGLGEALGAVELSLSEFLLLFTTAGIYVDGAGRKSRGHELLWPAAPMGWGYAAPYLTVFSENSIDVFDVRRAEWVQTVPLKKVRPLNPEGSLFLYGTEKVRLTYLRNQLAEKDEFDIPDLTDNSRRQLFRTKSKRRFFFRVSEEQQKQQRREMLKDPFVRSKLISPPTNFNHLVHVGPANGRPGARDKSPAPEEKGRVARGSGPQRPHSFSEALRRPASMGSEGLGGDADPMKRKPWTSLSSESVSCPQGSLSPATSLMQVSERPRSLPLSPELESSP

[18] = molecular target: MYLK (human) (UniProt Q15746)
[19] = molecular target: STK11 (human) (UniProt Q15831)
[20] = molecular target: STK35 (human) (UniProt Q8TDR2)
Sequence of STK35 (human) (Q8TDR2 whole entry, looked up): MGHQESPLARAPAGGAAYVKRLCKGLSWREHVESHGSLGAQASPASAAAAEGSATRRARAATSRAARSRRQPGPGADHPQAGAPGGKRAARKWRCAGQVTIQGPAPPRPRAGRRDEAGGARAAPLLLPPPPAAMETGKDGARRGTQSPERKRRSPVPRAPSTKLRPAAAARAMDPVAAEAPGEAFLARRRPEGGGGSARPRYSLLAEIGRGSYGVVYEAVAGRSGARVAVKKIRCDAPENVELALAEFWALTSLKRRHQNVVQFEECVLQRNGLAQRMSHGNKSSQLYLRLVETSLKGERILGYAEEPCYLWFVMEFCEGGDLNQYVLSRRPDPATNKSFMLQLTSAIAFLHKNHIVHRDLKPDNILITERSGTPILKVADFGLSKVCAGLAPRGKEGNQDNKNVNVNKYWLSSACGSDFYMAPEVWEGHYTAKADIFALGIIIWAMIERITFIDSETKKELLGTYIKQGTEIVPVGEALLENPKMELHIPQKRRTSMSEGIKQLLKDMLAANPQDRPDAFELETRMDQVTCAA

[21] = molecular target: NLK (human) (UniProt Q9UBE8)
[22] = molecular target: CLK2 (human) (UniProt P49760)
[23] = molecular target: CDK8 (human) (UniProt P49336)
[24] = system: EGFR (human), P00533 [T790M/L858R]
[25] = molecular target: FLT4 (human) (UniProt P35916)
[26] = molecular target: JAK3 JH1 catalytic (human) (UniProt P52333)
[27] = molecular target: EPHB4 (human) (UniProt P54760)
[28] = molecular target: SBK1 (human) (UniProt Q52WX2)
[29] = molecular target: JAK1 JH1 catalytic (human) (UniProt P23458)
[30] = molecular target: PIM1 (human) (UniProt P11309)
[31] = molecular target: DYRK2 (human) (UniProt Q92630)
[32] = molecular target: CHUK (human) (UniProt O15111)
[33] = molecular target: TAOK1 (human) (UniProt Q7L7X3)
[34] = molecular target: TEK (human) (UniProt Q02763)
[35] = molecular target: FRK (human) (UniProt P42685)
[36] = molecular target: PAK2 (human) (UniProt Q13177)
[37] = molecular target: RPS6KA4 KD2 (human) (UniProt O75676)
[38] = molecular target: STK32A (human) (UniProt Q8WU08)
[39] = molecular target: IRAK4 (human) (UniProt Q9NWZ3)
[40] = molecular target: TAOK2 (human) (UniProt Q9UL54)

Row | Structure (SMILES) | kinase still bound, per cent of control [2] [%] | kinase still bound, per cent of control [4] [%] | kinase still bound, per cent of control [5] [%] | kinase still bound, per cent of control [6] [%] | kinase still bound, per cent of control [7] [%] | kinase still bound, per cent of control [8] [%] | kinase still bound, per cent of control [9] [%] | kinase still bound, per cent of control [10] [%] | kinase still bound, per cent of control [11] [%] | kinase still bound, per cent of control [12] [%] | kinase still bound, per cent of control [13] [%] | kinase still bound, per cent of control [14] [%] | kinase still bound, per cent of control [15] [%] | kinase still bound, per cent of control [17] [%] | kinase still bound, per cent of control [18] [%] | kinase still bound, per cent of control [19] [%] | kinase still bound, per cent of control [21] [%] | kinase still bound, per cent of control [23] [%] | kinase still bound, per cent of control [25] [%] | kinase still bound, per cent of control [26] [%] | other results
1 | CCN(CC)CCCCNc1ncc2c(n1)N(C)C(=O)N(c1c(Cl)c(OC)cc(OC)c1Cl)C2 | 100 | 100 | 100 | 100 | 100 | 100 | 100 | 100 | 100 | 100 | 100 | 100 | 100 | 100 | 100 | 100 | 100 | 100 | 100 | 100 | kinase still bound, per cent of control [1]: 100%; kinase still bound, per cent of control [3]: 100%; kinase still bound, per cent of control [16]: 100%; kinase still bound, per cent of control [20]: 100%; kinase still bound, per cent of control [22]: 100%; kinase still bound, per cent of control [24]: 100%; kinase still bound, per cent of control [27]: 100%; kinase still bound, per cent of control [28]: 100%; kinase still bound, per cent of control [29]: 100%; kinase still bound, per cent of control [30]: 100%; kinase still bound, per cent of control [31]: 100%; kinase still bound, per cent of control [32]: 100%; kinase still bound, per cent of control [33]: 0.25% and 2.9%; kinase still bound, per cent of control [34]: 100%; kinase still bound, per cent of control [35]: 100%; kinase still bound, per cent of control [36]: 100%; kinase still bound, per cent of control [37]: 100%
2 | COc1cc(N2CCN(C)CC2)ccc1Nc1ncc2c(n1)N(C)c1ccccc1C(=O)N2C | 9.8 | 100 | 100 | 100 | 100 | 100 | 100 | 100 | 100 | 0.65 | 100 | 32 | 100 | 100 | 13 | 100 | 100 | 100 | 100 | 100 | kinase still bound, per cent of control [1]: 100%; kinase still bound, per cent of control [3]: 100%; kinase still bound, per cent of control [16]: 15%; kinase still bound, per cent of control [20]: 100%; kinase still bound, per cent of control [22]: 100%; kinase still bound, per cent of control [24]: 100%; kinase still bound, per cent of control [27]: 100%; kinase still bound, per cent of control [28]: 8.9%; kinase still bound, per cent of control [29]: 100%; kinase still bound, per cent of control [30]: 100%; kinase still bound, per cent of control [31]: 100%; kinase still bound, per cent of control [32]: 100%; kinase still bound, per cent of control [33]: 17% and 4.8%; kinase still bound, per cent of control [34]: 100%; kinase still bound, per cent of control [35]: 2.6%; kinase still bound, per cent of control [36]: 100%; kinase still bound, per cent of control [37]: 100%
3 | C[C@@H](Oc1cc(-c2cnn(C3CCNCC3)c2)cnc1N)c1c(Cl)ccc(F)c1Cl | 83 | 92 | 90 | 60 | 91 | 14 | 27 | 17 | 4.6 | 2 | 37 | 100 | 100 | 48 | 82 | 57 | 93 | 100 | 100 | 0.65 | kinase still bound, per cent of control [1]: 84%; kinase still bound, per cent of control [38]: 86%; kinase still bound, per cent of control [39]: 24%; kinase still bound, per cent of control [22]: 68%; kinase still bound, per cent of control [27]: 4.8%; kinase still bound, per cent of control [28]: 6%; kinase still bound, per cent of control [29]: 0.45%; kinase still bound, per cent of control [30]: 100%; kinase still bound, per cent of control [31]: 9.6%; kinase still bound, per cent of control [32]: 100%; kinase still bound, per cent of control [33]: 1.2%; kinase still bound, per cent of control [34]: 1%; kinase still bound, per cent of control [35]: 15%; kinase still bound, per cent of control [40]: 0.9%; kinase still bound, per cent of control [36]: 96%; kinase still bound, per cent of control [37]: 50%
4 | CS(=O)(=O)N1CCN(Cc2cc3nc(-c4cccc5[nH]ncc45)nc(N4CCOCC4)c3s2)CC1 | 100 | 100 | 100 | 100 | 100 | 100 | 100 | 100 | 100 | 100 | 100 | 100 | 100 | 100 | 100 | 100 | 100 | 100 | 100 | 100 | kinase still bound, per cent of control [3]: 100%; kinase still bound, per cent of control [16]: 100%; kinase still bound, per cent of control [20]: 100%; kinase still bound, per cent of control [24]: 100%; kinase still bound, per cent of control [27]: 100%; kinase still bound, per cent of control [28]: 100%; kinase still bound, per cent of control [29]: 100%; kinase still bound, per cent of control [30]: 100%; kinase still bound, per cent of control [31]: 100%; kinase still bound, per cent of control [32]: 100%; kinase still bound, per cent of control [33]: 100%; kinase still bound, per cent of control [34]: 100%; kinase still bound, per cent of control [35]: 100%; kinase still bound, per cent of control [36]: 100%; kinase still bound, per cent of control [37]: 100%
